# In BindingDB's records for patent US20230339939 (Bayer Aktiengesellschaft, 2023):
# pIC50: −log10 of the molar value.
# Tests used:
# [1] = target: Casein kinase I isoform delta (Homo sapiens, UniProt P48730); assay: CSNK1D-Inhibitory Activity Assay
# Protocol: Recombinant fusion protein of N-terminal Glutathion-S-Transferase (GST) and full-length human CSNK1D, expressed by baculovirus infected insect cells and purified via Glutathion affinity chromatography, was purchased from Life Technologies (product no. PV3665) and used as enzyme. As substrate for the kinase reaction the biotinylated peptide Btn-Ahx-[…] (C-terminus in amide form) was used which can be purchased e.g. from the company Biosyntan (Berlin-Buch, Germany). For the assay 50 nl of a 100 fold concentrated solution of the test compound in DMSO was pipetted into a white 1536-well microtiter plate (Greiner Bio-One, Frickenhausen, Germany), 2 μL of a solution of CSNK1D in aqueous assay buffer [50 mM HEPES pH 7.5, 10% (v/v) glycerol, 10 mM MgCl2, 50 mM NaCl, 1 mM dithiothreitol, 0.01% (w/v) bovine serum albumin, 0.01% (v/v) Triton X-100] were added and the mixture was incubated for 15 min at 22 C. to allow pre-binding of the test compounds to the enzyme before the start of the kinase reaction. […] Subsequently 2.5 μL of the kinase detection reagent (1.2 fold more concentrated than recommended by the producer) were added, the resulting mixture was incubated at 22 C. for 1 h and then the luminescence measured with a suitable measurement instrument (e.g. Viewlux from Perkin-Elmer).
# [2] = target: T1, Casein kinase I isoform alpha (Homo sapiens, UniProt P48729); assay: CSNK1A1 Inhibitory activity Assay 2
# Text: (§1) Recombinant fusion protein of N-terminal Glutathion-S-Transferase (GST) and full-length human CSNK1A1, expressed by baculovirus infected insect cells and purified via Glutathion affinity chromatography, was purchased from Life Technologies (product no. PV4174) and used as enzyme. As substrate for the kinase reaction the biotinylated peptide biotin-Ahx-KRRRAL-pS-VASLPGL (C-terminus in amide form) was used which can be purchased e.g. from the company Biosyntan (Berlin-Buch, Germany). For the assay 50 nl of a 100 fold concentrated solution of the test compound in DMSO was pipetted into a white low volume 384-well microtiter plate (Greiner Bio-One, Frickenhausen, Germany), 2 μL of a solution of CSNK1A1 in aqueous assay buffer [50 mM HEPES pH 7.5, 10% (v/v) glycerol, 10 mM MgCl2, 50 mM NaCl, 1 mM dithiothreitol, 0.01% (w/v) bovine serum albumin, 0.01% (v/v) Triton X-100] were added and the mixture was incubated for 15 min at 22 C. to allow pre-binding of the test compounds to the enzyme before the start of the kinase reaction. […] Subsequently 2.5 μL of the kinase detection reagent (1.2 fold more concentrated than recommended by the producer) were added, the resulting mixture was incubated at 22 C. for 1 h and then the luminescence measured with a suitable measurement instrument (e.g. Viewlux from Perkin-Elmer).
# [3] = target: T1, Casein kinase I isoform alpha; assay: CSNK1A1 High ATP Assay
# Text: as §1
# [4] = target: Epidermal growth factor receptor (Homo sapiens, UniProt P00533); assay: WT-EGFR Kinase Assay
# Protocol: For the assay 50 nl of a 100 fold concentrated solution of the test compound in DMSO was pipetted into either a black low volume 384 well microtiter plate or a black 1536 well microtiter plate (both Greiner Bio-One, Frickenhausen, Germany), 2 μL of a solution of EGFR in aqueous assay buffer [50 mM Hepes pH 7.0, 10 mM MgCl2, 1 mM dithiothreitol, 0.5 mM EGTA, 0.3 mM activated sodium ortho-vanadate, 0.005% (w/v) bovine serum albumin, 0.005% (v/v) Tween-20] were added and the mixture was incubated for 15 min at 22° C. to allow pre-binding of the test compounds to the enzyme before the start of the kinase reaction. […] The concentration of EGFR was adjusted depending of the activity of the enzyme lot and was chosen appropriate to have the assay in the linear range, typical concentration was 7.6 pg/μL. The reaction was stopped by the addition of 3 μL of a solution of HTRF detection reagents (83.3 nM streptavidine-XL665 [Cisbio Bioassays, Codolet, France] and 1.67 nM PT66-Tb-Cryptate, a terbium-cryptate labelled anti-phospho-tyrosine antibody from Cisbio Bioassays [instead of the PT66-Tb-cryptate PT66-Eu-Chelate from Perkin Elmer can also be used]) in an aqueous EDTA-solution (133.3 mM EDTA, 0.2% (w/v) bovine serum albumin in 50 mM HEPES pH 7.5). […]
# T1 sequence (P48729 whole entry, the tested form may be a part, canonical isoform): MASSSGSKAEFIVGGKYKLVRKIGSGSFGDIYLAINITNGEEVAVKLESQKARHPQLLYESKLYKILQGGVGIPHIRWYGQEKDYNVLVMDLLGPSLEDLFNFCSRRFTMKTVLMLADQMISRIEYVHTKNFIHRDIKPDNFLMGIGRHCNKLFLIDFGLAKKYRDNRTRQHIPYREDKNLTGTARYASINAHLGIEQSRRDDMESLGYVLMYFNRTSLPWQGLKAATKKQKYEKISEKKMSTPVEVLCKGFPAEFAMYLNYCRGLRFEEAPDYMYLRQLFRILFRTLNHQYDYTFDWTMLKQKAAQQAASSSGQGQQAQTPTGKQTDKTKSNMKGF
# Casein kinase I isoform delta, sequence (P48730 whole entry, the tested form may be a part, canonical isoform): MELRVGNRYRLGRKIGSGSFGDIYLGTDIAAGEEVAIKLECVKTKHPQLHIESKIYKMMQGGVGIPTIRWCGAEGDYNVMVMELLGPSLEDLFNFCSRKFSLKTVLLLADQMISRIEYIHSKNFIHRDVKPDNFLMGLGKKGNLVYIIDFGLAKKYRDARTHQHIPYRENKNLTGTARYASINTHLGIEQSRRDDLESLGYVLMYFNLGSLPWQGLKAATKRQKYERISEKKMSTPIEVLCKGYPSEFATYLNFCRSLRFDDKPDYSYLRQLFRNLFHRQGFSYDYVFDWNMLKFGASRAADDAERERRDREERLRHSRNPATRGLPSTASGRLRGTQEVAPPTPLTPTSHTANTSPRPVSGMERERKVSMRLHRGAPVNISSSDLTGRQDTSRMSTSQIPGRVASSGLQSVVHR
# Epidermal growth factor receptor, sequence (P00533 whole entry): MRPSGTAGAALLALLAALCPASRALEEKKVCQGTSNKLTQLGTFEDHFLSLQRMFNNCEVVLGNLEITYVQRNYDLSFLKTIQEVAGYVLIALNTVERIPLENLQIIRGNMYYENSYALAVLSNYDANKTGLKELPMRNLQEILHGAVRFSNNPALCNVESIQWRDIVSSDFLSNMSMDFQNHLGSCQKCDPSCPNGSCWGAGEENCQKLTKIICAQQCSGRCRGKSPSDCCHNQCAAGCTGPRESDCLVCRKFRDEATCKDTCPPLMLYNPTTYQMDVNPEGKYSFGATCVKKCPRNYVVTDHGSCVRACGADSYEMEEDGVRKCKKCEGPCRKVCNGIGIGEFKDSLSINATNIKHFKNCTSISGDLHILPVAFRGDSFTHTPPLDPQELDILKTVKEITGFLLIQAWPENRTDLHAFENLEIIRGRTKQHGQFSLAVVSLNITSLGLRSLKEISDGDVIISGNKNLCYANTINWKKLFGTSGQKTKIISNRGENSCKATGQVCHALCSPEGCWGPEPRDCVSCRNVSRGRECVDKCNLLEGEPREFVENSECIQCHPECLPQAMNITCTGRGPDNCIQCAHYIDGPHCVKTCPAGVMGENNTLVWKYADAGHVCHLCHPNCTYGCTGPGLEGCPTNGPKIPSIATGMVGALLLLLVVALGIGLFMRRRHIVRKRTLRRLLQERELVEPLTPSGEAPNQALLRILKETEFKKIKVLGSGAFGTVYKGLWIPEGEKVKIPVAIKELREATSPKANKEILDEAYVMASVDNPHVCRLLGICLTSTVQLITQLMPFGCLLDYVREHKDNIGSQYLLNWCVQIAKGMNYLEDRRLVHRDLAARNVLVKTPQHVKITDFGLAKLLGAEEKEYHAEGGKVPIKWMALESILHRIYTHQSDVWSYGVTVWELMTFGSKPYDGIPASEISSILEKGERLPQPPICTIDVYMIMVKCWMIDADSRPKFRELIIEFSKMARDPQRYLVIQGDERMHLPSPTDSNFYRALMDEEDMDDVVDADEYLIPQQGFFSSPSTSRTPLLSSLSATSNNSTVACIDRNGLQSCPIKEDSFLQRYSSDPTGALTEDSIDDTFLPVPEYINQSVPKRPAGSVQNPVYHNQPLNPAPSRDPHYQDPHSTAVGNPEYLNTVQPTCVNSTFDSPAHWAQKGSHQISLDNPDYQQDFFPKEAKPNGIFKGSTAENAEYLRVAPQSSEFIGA
Compound,pIC50 [1],pIC50 [2],pIC50 [3],pIC50 [4]
"CC(C)C(C(=O)Nc1cc(-c2[nH]c3ccc(F)nc3c2-c2ccccn2)ccn1)c1ccc(F)cc1 (single isomer, unassigned) [US20230339939, Example 24]",7.98,8.32,7.37,–
"O=C(Cc1ccc(F)cc1)Nc1cc(-c2[nH]c3c(CC4CC4)cc(F)nc3c2-c2ccccn2)ccn1 [US20230339939, Example 37]",8.24,8.40,8.02,< 4.70
